The values below come from patent US5262439A (priority 1992, dated 1993).

Data set [1] deals with LDL incubated with mouse peritoneal macrophages. The data set can be described thus: Macrophage degradation of LDL previously incubated with pretreated macrophages (biological modification). The format is cell-based. Here is the method:
(§1) After 48 hours the cells were washed 3 times with 3 ml of Ham's F-10 and then subjected to incubation with ^125 I-LDL (1100 μg/ml) in 2 ml of Ham's F-10 for 20 hours. TBARS and subsequent macrophage degradation were determined. The results are averages from a triplicate determination from a representative set.
(§2) After several washings with Ham's F-10, the cells were then incubated with 200 μg of ^125 I-LDL in 2 ml. of Ham's F-10 for 24 hours. […] However, because the probucol was obviously not in solution and might remain absorbed to the cell surface even after washing, it is possible that residual probucol on the cell surface accounted for the apparent protection during the second incubation, i.e., probucol from the cell surface might transfer into the LDL during the first part of the second incubation.
(§3) Then the cells were thoroughly washed to remove any extracellular inhibitors. Specifically, they were washed three times with 3 ml of F-10 containing 10% fetal calf serum and then incubated with labeled LDL for an additional 24 hours. […] The values given are from a typical experiment from three or more separate experiments.

Data set [2] relates to macrophages. The data set can be described thus: Uptake of ^14 C-labeled water-soluble derivative by macrophages. The format is cell-based, mouse. The note with it: for Cell associated ^14 C-radioactivity: 3 hours at 37° C. Here is the method:
(§4) The cells were then washed three times with DME. […] The cells were dissolved in 1 ml of 0.01% Triton X-100 before the determination of radioactivity. Values for macrophages represent averages of duplicate determinations from one of two separate trials. Values for endothelial cells are from four individual cell incubations.

Data set [3] deals with LDL. The data set can be described thus: Inhibition of oxidative modification of LDL, compound present during 24 hour incubation. The format is cell-based.
Data set [4] concerns LDL incubated with endothelial cells (EC). The data set can be described thus: Macrophage degradation of LDL previously incubated with pretreated endothelial cells (biological modification). As to conditions: Set A, 3 hours at 37° C., LDL 24 hours. The format is cell-based. The protocol: as §3
For data set [5], the system named is endothelial cells. The data set can be described thus: Uptake of ^14 C-labeled water-soluble derivative by endothelial cells. The format is cell-based. As to conditions: 5 nmol added, 3 hours at 37° C., four individual cell incubations. Here is the method: as §4
The subject of data set [6] is endothelial cells. Briefly: Uptake, retention and release of probucol by endothelial cells incubated with ^14 C-labeled diglutaryl probucol. The format is cell-based. The protocol: (§5) Nevertheless, after two subsequent incubations with LDL at 100 μg/ml for 24 hours each, 30-45% of the incorporated radioactivity was still associated with the cells. […] Thus, cells enriched in probucol, also released the antioxidant into the medium which may offer additional protection against oxidation. The rate of release of probucol from cells was not followed in these studies.

Data set [7] concerns LDL incubated with endothelial cells (EC). The data set can be described thus: Ability of endothelial cells (EC) to induce LDL oxidation after pretreatment (TBARS). The note with it: Set A, 3 hours at 37° C., LDL 24 hours. The format is cell-based. The protocol:
as §3

Data set [8] is described as follows: Solubility. The format is physicochemical. The protocol: (§6) The product was purified by silicic acid column chromatography using increasing amounts of ether in hexane. The purified product gave a single spot on TLC (Rf 0.18) distinct from the parent compound (Rf 0.68). Upon alkaline hydrolysis, the compound yielded free probucol.
More than 96% of the labeled derivative readily went into the solution as the sodium salt and when incubated with macrophages was effectively taken up by the cells.

For data set [9], the system named is LDL incubated with endothelial cells. Briefly: Oxidation of LDL recovered from the medium of diglutaryl probucol-pretreated endothelial cells. The format is cell-based. As to conditions: endothelial cells preincubated with 25 nmol for 3 hours. The protocol:
as §5

Data set [10] deals with LDL. The data set can be described thus: Subsequent copper modification of LDL recovered from pretreated endothelial cells. The format is biochemical. Here is the method:
as §5

Data set [11] can be described thus: Hydrolysis to free probucol. The format is physicochemical.
From the text: A particularly preferred embodiment of the present invention is a class of dicarboxylic acid esters of probucol compounds which can be dissolved as sodium or potassium salts.
as §6

For data set [12], the system named is LDL incubated with mouse peritoneal macrophages. Briefly: Ability of macrophages to oxidize LDL after preincubation with probucol or diglutaryl probucol (TBARS). The format is cell-based. The protocol: as §1, §2, §3
Data set [13] relates to LDL receptor-deficient rabbits. The note with it: cited from earlier work.
The conditions of data set [14]: cited from earlier work.
Data set [15] deals with rat. As to conditions: given orally for some time before tying off a renal artery; cited from earlier work.
Data set [16] relates to endothelial cells. The note with it: cited from earlier work.
Data set [17] deals with LDL. The note with it: cited from earlier work.
The mark [18] stands for this setting: Set B, macrophages pretreated with 10 μM, 3 hours at 37° C., LDL 24 hours.
[19] abbreviates: Set B, macrophages pretreated with 20 μM, 3 hours at 37° C., LDL 24 hours.
Where [20] appears, read: Set B, macrophages pretreated with 30 μM, 3 hours at 37° C., LDL 24 hours.
Setting [21] is: macrophages pretreated with 500 nmol/ml probucol in ethanol, 48 hours, then LDL.
The mark [22] stands for this setting: EC pretreated with 100 μM (probucol in ethanol).

Some results are limits rather than exact numbers.

For orientation: inhibition means the percentage by which the read-out fell short of the control. A higher inhibition goes with strong suppression. In the case of `CC(C)(Sc1cc(C(C)(C)C)c(OC(=O)CCCC(=O)O)c(C(C)(C)C)c1)Sc1cc(C(C)(C)C)c(OC(=O)CCCC(=O)O)c(C(C)(C)C)c1` [diglutaryl probucol, probucol diglutarate], the Macrophage degradation is on record as 2.2 μg/5 h per mg cell protein in data set [1] (setting [18]); 1.6 μg/5 h per mg cell protein in data set [1] (setting [19]); 1.4 μg/5 h per mg cell protein in [1] (setting [20]); 1.5 μg/5 h per mg cell protein in [4] (EC pretreated with 25 μM); 1.3 μg/5 h per mg cell protein in [4] (EC pretreated with 50 μM). For the same compound, the “Cell associated radioactivity in the form of the precursor, probucol diglutarate” value in [2] (at 60 minutes) is on record as “about half”. The “Cell associated ^14 C-radioactivity” value stood at 2.5 nmol in data set [2] (macrophages, 5 nmol added); 3.7 nmol in [2] (macrophages, 10 nmol added); 4.2 nmol in data set [2] (macrophages, 15 nmol added); 5.2 nmol in [2] (macrophages, 20 nmol added); 6.5 nmol in [2] (macrophages, 25 nmol added); 1.9 ± 0.14 nmol in data set [5]. In addition, the “Added radioactivity associated with the cells” value in data set [2] (macrophages, after 2 hours) was 25-30%. Moreover, in data set [2] (macrophages, after 2 hours), the “Amount associated with the cells” value is on record as 2.5-6.5 nmol of probucol/~40 μg of cell protein. Besides, the inhibition at 2.5 µM in data set [3] is over 50%. In data set [6] (50-200 nmol, after two subsequent incubations with LDL at 100 μg/ml for 24 hours each), the “Incorporated radioactivity still associated with the cells” value is 30-45%. Moreover, the “Release of free probucol into the medium” value in data set [6] (endothelial cells incubated with 50-200 nmol, 24 hour incubation after washings) is given as “considerable release of free probucol into the medium”. Besides, the TBARS in data set [7] (EC pretreated with 25 μM) is given as 12.1 nmol/mg protein; in data set [7] (EC pretreated with 50 μM) it was 6.5 nmol/mg protein; in data set [12] (setting [18]), 5.3 nmol/mg protein; in data set [12] (setting [19]), 4.1 nmol/mg protein; in [12] (setting [20]), 3.3 nmol/mg protein. Also, in data set [8] (acid form), the “Solubility in organic solvents” value was “soluble in organic solvents”. In addition, the “Labeled derivative going into solution” value in [8] (as the sodium salt) was “More than 96%”. In data set [8] (sodium bicarbonate solution, after removal of organic solvent), the “Solubility in sodium bicarbonate solution” value is on record as “can be dissolved in sodium bicarbonate solution”. Further, in data set [9], the “Oxidation of LDL recovered from the medium” value is “absence of oxidation”. The results for the “Modification of recovered LDL upon subsequent incubation with 5 μM copper” value in data set [10] (endothelial cells preincubated with 25 nmol for 3 hours) and in data set [10] (endothelial cells preincubated with 50-200 nmol) were “readily modified” and “resistant to modification”, respectively. In addition, the “Hydrolysis in the course of incubation” value in [11] (24 hour incubation, medium) is given as “almost completely hydrolyzed”. Also, the “Hydrolysis in aqueous solution” value in [11] (sodium salt in aqueous solution) is reported as “slow hydrolysis”. Besides, in data set [12] (concentrations as low as 10 μM, 3 hours pretreatment), the “Inhibition of LDL modification by pretreated cells” value was “inhibited the modification completely”.

`CC(C)(Sc1cc(C(C)(C)C)c(O)c(C(C)(C)C)c1)Sc1cc(C(C)(C)C)c(O)c(C(C)(C)C)c1` [probucol, 4,4'-(isopropylidenedithio) bis(2,6-di-tert-butylphenol), reference compound]: the Macrophage degradation in [1] (setting [21]) is 2.1 μg/5 h per mg cell protein; in data set [4] (setting [22]) it was 6.4 μg/5 h per mg cell protein. Also, in data set [6] (24 hour incubation with LDL, 50-200 nmol diglutaryl probucol), the “Probucol released into the medium” value was “about 7 nmol”. Besides, in data set [6] (endothelial cells, 50-200 nmol diglutaryl probucol), the “Probucol incorporated into the cells” value is “more than 15 nmol”. The Progression of atherosclerosis entry in data set [13] was “slow the progression of atherosclerosis”. In addition, the figures for the TBARS in [7] (setting [22]) and in [12] (setting [21]) were 42.5 nmol/mg protein and 11.2 nmol/mg protein, respectively. In addition, in [8] (500 nmol/ml added in ethanol, medium grossly milky), the Solubility in medium result was “very limited solubility”. The Solubility in lipid result in [14] is “highly lipid soluble”. Moreover, the Solubility in water result in [14] (water) was “almost insoluble in water”. Moreover, in data set [15], the “Post-perfusion injury in the kidney” value is given as “can limit the post-perfusion injury in the kidney”. In addition, the “Incorporation into endothelial cells” value in data set [16] (50 μM probucol, 24 h) is “less than 1 μg of probucol/10^6 cells”. For the same compound, the “Rate of entrance into cells in culture” value in [16] (cells in culture) is “slow”. Besides, the “LDL modification by cells as compared to control cells not pretreated” value in data set [12] (cells preincubated with probucol 500 nmol/ml) is reported as “modified LDL poorly as compared to control cells”. In data set [17], the “Oxidative modification of LDL” value was “block oxidative modification of LDL”.
